Columns and labels:
[1] = target: T1, tau protein (4R2N, 441 amino acids) (Homo sapiens, UniProt P10636); test: In vitro abnormal tau phosphorylation by GSK3β, competition with heparin (western blot); type: biochemical; conditions: for capacity to protect tau from its abnormal phosphorylation induced by heparin / ability to compete with heparin for abnormal tau phosphorylation by GSK3β: molecule 60 μg/mL vs heparin 12 μg/mL; for capacity to protect tau from its abnormal phosphorylation induced by heparin: AT270 antibody; for ability to compete with heparin for abnormal tau phosphorylation by GSK3β: 1.5 to 6 h of reaction, AT270, Ser199/202
T1 construct: purchased Millipore (tau); Promega (GSK3β)
Text: Phosphorylation of tau protein is the most common post-translational modification to regulate tau activity and functions. The longest tau isoform (4R2N, 441 amino acids) containing 85 potential phosphorylation sites was used. In vitro phosphorylation of the tau protein is done by induction, on the one hand, (FIG. 5) and, on the other hand, according to a competition process between the LG2A molecules and heparin, conventionally used to induce abnormal tau phosphorylation in vitro (FIGS. 3, 4, 6, 7, 8, 9 and 10).
For abnormal tau phosphorylation tests, GSK3p, a kinase centrally involved in this process in the brains of subjects with Alzheimer's disease (AD), was used. Analysis of tau phosphorylation by GSK3b at sites characteristic of AD is possible by the western blot technique using specific antibodies that recognize abnormally phosphorylated sites in the brain or cerebrospinal fluid of AD subjects, such as the AT270 antibody which recognizes threonine 181 (Thr181), the PHF1 antibody which recognizes serines 396 and 404 (Ser396/Ser404), and the AT8 antibody, which recognizes the Ser199/Ser202/Thr205 site.
By competition: The tau protein (40 μg/mL) is phosphorylated by the GSK3β enzyme at 4 ng/mL (Promega) in the presence of ATP (Sigma-Aldrich) at 48 μM and protease inhibitors (Sigma-Aldrich, 1/100), in the buffer mentioned above. The ability of the LG2A molecules (60 μg/mL) to compete with heparin (12 μg/mL; Sigma-Aldrich) is evaluated. Thus if the signal in the presence of the molecules is less than that obtained with heparin alone, the molecules are then defined as “protectors” from abnormal tau phosphorylation.
In both systems (induction or competition), the tau protein is incubated at 37° C. with stirring in the presence of the different elements presented above. The reaction kinetics are monitored by taking 8 μL of the samples at 1.5 h, 3 h and 6 h of incubation. Loading buffer (Euromedex) and β-mercaptoethanol (Sigma-Aldrich) are added to each sample. The samples are then stored at −20° C. until analysis by western blot.
After denaturation of the samples by heating at 95° C. for 5 minutes, the samples are deposited simultaneously with the molecular weight marker (Precision Plus Protein™ Dual Color Standards; BIO-RAD) on a 10% acrylamide gel placed in an electrophoresis tank containing migration buffer (0.25 M Tris; 1.6 M Glycine; […]; pH 8.6).
The controls used for this phosphorylation experiment followed by western blot are: • the “native tau” protein, that is to say the non-phosphorylated tau protein. • the tau protein phosphorylated by GSK3b alone in the absence of heparin. • the tau protein phosphorylated in the presence of heparin, denoted “tau+heparin”. • the “external standard” corresponding to the tau protein phosphorylated in the presence of heparin for 3 h. This standard is carried out in an experiment independently of the phosphorylation experiments in the presence of LG2A compounds. It ensures that the western blot is carried out correctly.
Then the membrane is incubated overnight with stirring at +4° C. in a solution of PBS, 0.1% Tween and 1% milk containing the primary antibody specific for tau phosphorylation sites (AT270, ThermoScientific or S199-202, Millipore).
After incubation of the PVDF membrane in the chosen primary antibody, a succession of 3 washes of 5 minutes of the membrane is carried out in PBS and 0.1% Tween with stirring and the membrane is incubated for 1 h with stirring at room temperature in a solution of 1×PBS, 0.1% Tween and 1% milk containing the diluted secondary antibody (Jackson Immuno-Research).

SH-SY5Y = test: Cytotoxicity study, MTT test; type: cell-based; conditions: differentiated SH-SY5Y; 0.1 to 100 μg/mL; 24 hours
Method: In order to evaluate the level of toxicity of these molecules according to their concentration in the cellular environment, an MTT test (3-(4,5-dimethylthiazol-2-yl)-2,5-diphenyl tetrazolium bromide) is carried out (FIGS. 11 and 12) upstream of the phosphorylation tests in cellulo.
SH-SY5Y (ATCC-CRL-2266) are developed in Dulbecco's Modified Eagle Complete Medium (DMEM-GlutaMAX™, Life Technologies) with 10% foetal bovine serum (FBS) and 1% penicillin/streptomycin in an incubator at 37° C. with 5% CO2.
For this, the SH-SY5Y cells are cultured in a 6-well plate at a cell density of 200,000 cells/well and are differentiated using retinoic acid (10 μM, Sigma Aldrich) for 5 days. On day 6, the cells are brought into contact with LG2A molecules at different concentrations (0.1, 1, 10 or 100 μg/mL), in a final volume of 2 mL. After 24 hours, MTT (5 μg/mL; Sigma-Aldrich) is added to the cell medium for 2 hours at 37° C. Then the medium is removed and 200 μL of pure dimethylsulfoxide (DMSO, Sigma-Aldrich) are added to each well. The entire contents of each well are transferred to a 96-well plate and the absorbance is measured at 562 nm using the Infinite M1000 spectrofluorometer (Tecan).

[2] = test system: tau phosphorylation (S262 site) in SH-SY5Y cells; test: In cellulo tau phosphorylation test in the SH-SY5Y line (H2O2 stress induction); type: cell-based; conditions: 24 hours, then H2O2
Method: The tau phosphorylation induction model on the SH-SY5Y cell line described in the Gly-CRRET laboratory article was used here (Sepulveda-Diaz et al., 2015).
In short, SH-SY5Y cells are seeded in 6-well plates and differentiated using retinoic acid (10 μM, Sigma Aldrich) for 5 days. On day 6, the cells are placed in the presence of the Mal16diS and Mal18diS molecules at different concentrations (1, 10 or 100 μg/mL), in a final volume of 2 mL simultaneously with a well not receiving molecules. After 24 hours, the molecules are removed and the stress inducer (H2O2, Sigma Aldrich) is added to the cell medium for 30 minutes. The cells are then rinsed with 1×PBS then lysed and recovered in RIPA buffer (Thermo Fisher). The protein extracts from the cells (10 μg) are then analysed by western blot according to the same procedure described above.
The tau phosphorylation site studied here is the S262 site (Thermo Fisher), normalized to the expression of the GAPDH protein (Sigma Aldrich). The bands are quantified using the Odyssey software of the LI-COR device allowing the p-tau/GAPDH ratio to be calculated for each of the conditions. The ratio obtained for each concentration of molecule is then expressed as a percentage of the ratio obtained for the control cells, i.e., not treated by the molecules. Thus a value less than 100% corresponds to protection provided by the molecules in this cellular model of tau phosphorylation induction.
The experiment was repeated at least 4 times for each molecule dose for the “Mal16diS” and “Mal18diS” molecules and at least twice for the “Cell16diS” and “Lac16diS” molecules. The mean and standard deviation of the replicates are shown in FIGS. 13 to 16; each of the values obtained for each dose is compared to that of the control without addition of molecule by means of a t-test. Statistical differences with p-value <0.05 and <0.001 are represented by “*” and “***” respectively.

[3] = target: T1, tau protein (4R2N, 441 amino acids); conditions: GSK3β; FIG. 2, Sepulveda-Diaz et al, 2015; cited from earlier work

T1 sequence (P10636 1-441 isoform P10636-8): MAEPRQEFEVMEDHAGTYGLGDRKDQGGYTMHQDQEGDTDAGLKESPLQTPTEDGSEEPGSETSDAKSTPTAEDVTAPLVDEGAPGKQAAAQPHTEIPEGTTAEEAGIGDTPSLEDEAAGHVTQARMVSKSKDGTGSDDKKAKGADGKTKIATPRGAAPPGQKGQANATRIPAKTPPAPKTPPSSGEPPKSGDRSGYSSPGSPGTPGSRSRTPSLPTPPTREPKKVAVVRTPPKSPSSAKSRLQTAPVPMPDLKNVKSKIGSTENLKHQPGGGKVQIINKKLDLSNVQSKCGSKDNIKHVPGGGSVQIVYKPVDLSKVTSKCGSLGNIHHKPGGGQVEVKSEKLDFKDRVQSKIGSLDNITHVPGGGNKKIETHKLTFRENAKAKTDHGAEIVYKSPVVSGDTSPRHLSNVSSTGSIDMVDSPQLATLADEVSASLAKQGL

Compound | capacity to protect tau from its abnormal phosphorylation induced by heparin [1] | ability to compete with heparin for abnormal tau phosphorylation by GSK3β [1] | further results
CCCCCCCCCCCCCCCCNC(=O)C(OS(=O)(=O)[O-])C(OS(=O)(=O)[O-])C(OC1OC(COS(=O)(=O)[O-])C(OS(=O)(=O)[O-])C(OS(=O)(=O)[O-])C1OS(=O)(=O)[O-])C(COS(=O)(=O)[O-])OS(=O)(=O)[O-].[Na+].[Na+].[Na+].[Na+].[Na+].[Na+].[Na+].[Na+] [Mal16perS, N-Hexadecyl-Per-O-Sulfo-D-Maltobioamide Sodium Salt] | retains its ability to protect tau |  | 
CCCCCCCCCCCCCCCCCCNC(=O)[C@H](O)[C@@H](O)[C@H](O[C@H]1OC(COS(=O)(=O)[O-])[C@@H](O)C(O)[C@@H]1O)[C@H](O)COS(=O)(=O)[O-].[Na+].[Na+] (stereo partly drawn) [Mal18diS, N-Octadecyl-6,6′-Di-O-Sulfo-D-Maltobionamide Disodium] |  | total competition with heparin | abnormal phosphorylation of tau (p-tau) revealed by AT270 and Ser199/202 antibodies ([1]; in presence of heparin, after 3 h of reaction): inhibited; cytotoxicity (MTT) (SH-SY5Y): not cytotoxic; reduction in tau phosphorylation (S262, p-tau/GAPDH) compared to untreated cells ([2]; 1 μg/mL): ~30%; reduction in tau phosphorylation (S262, p-tau/GAPDH) compared to untreated cells ([2]; 10 μg/mL): ~30%; reduction in tau phosphorylation (S262, p-tau/GAPDH) compared to untreated cells ([2]; 100 μg/mL): up to 60%
CCCCCCCCCCCCCCNC(=O)[C@H](O)[C@@H](O)[C@H](O)[C@H](O)CO[C@H]1O[C@H](COS(=O)(=O)[O-])[C@H](O)[C@H](O)[C@H]1O.[Na+] [Mel14monoS, N-Tetradecyl-6′-O-Sulfo-Melibioamide Sodium] |  | do not compete with heparin | 
CCCCCCCCCCCCCCCCNC(=O)[C@H](O)[C@@H](O)[C@H](O)[C@H](O)CO[C@H]1O[C@H](COS(=O)(=O)[O-])[C@H](O)[C@H](O)[C@H]1O.[Na+] [Mel16monoS, N-Hexadecyl-6′-O-Sulfo-Melibioamide Sodium] |  | do not compete with heparin | 
CCCCCCCCCCCCCCCCCCNC(=O)C(O)C(O)C(O)C(O)COC1OC(COS(=O)(=O)[O-])C(O)C(O)C1O.[Na+] (centres unmarked) [Mel18monoS, N-Octadecyl-6′-O-Sulfo-Melibioamide Sodium] |  | do not compete with heparin | 
N-Hexadecyl-6 or 6′-O-Sulfo-D-Maltobioamide Sodium [Mal16monoS] | slight loss of the protective capacity |  | 
N-Hexadecyl-6,6′-Di-O-Sulfo-D-Cellobioamide Disodium [Cell16diS] |  | total competition with heparin | reduction in tau phosphorylation (S262, p-tau/GAPDH) compared to untreated cells ([2]; 1 μg/mL): approximately 34%; reduction in tau phosphorylation (S262, p-tau/GAPDH) compared to untreated cells ([2]; 10 μg/mL): 17%; reduction in tau phosphorylation (S262, p-tau/GAPDH) compared to untreated cells ([2]; 100 μg/mL): 20%
N-Hexadecyl-6,6′-Di-O-Sulfo-Lactobioamide Disodium [Lac16diS] |  | total competition with heparin | reduction in tau phosphorylation (S262, p-tau/GAPDH) compared to untreated cells ([2]; 1 μg/mL): 25%; reduction in tau phosphorylation (S262, p-tau/GAPDH) compared to untreated cells ([2]; 100 μg/mL): 54%
N-Hexadecyl-D-Glucuronyl-(α-1,4)-D-Xyluronamide [Mal16diOx] | less effective than disulphated maltobionamide compounds with the same chain length |  | 
N-Hexadecyl-Tri-O-Sulfo-D-Maltobioamide Trisodium [Mal16triS] | maintenance of this capacity to protect tau |  | 
N-Octadecyl-6 or 6′-O-Sulfo-D-Maltobioamide Sodium [Mal18monoS] | slight loss of the protective capacity |  | 
N-Octadecyl-6,6′-Di-O-Sulfo-D-Cellobioamide Disodium [Cell18diS] |  | total competition with heparin | 
N-Octadecyl-6,6′-Di-O-Sulfo-Lactobioamide Disodium [Lac18diS] |  | total competition with heparin | 
N-Octadecyl-D-Glucuronyl-(α-1,4)-D-Xyluronamide [Mal18diOx] |  | does not compete with heparin | 
N-Octadecyl-Tri-O-Sulfo-D-Maltobioamide Trisodium [Mal18triS] | maintenance of this capacity to protect tau |  | 
heparin |  |  | phosphorylation of tau on sites characteristic of AD in the presence of heparin [3]: phosphorylation at all tau sites takes place
